Counter-ions that a name gives are not always drawn. Like-named read-outs stand apart in the source and are kept apart here. Bounds are passed on as bounds.

Experiment [1] addresses T1, MMP13 (Homo sapiens, UniProt P45452).
T1 construct: purchased Biotrend, Roche, Boehringer Mannheim
Description: Inhibition of MMP 13 activity (fluorimetric peptide substrate cleavage). The class given is biochemical. Particulars: recombinant enzyme, APMA activation, pH 7.5 or pH 6.5, fluorimeter.

In experiment [2] the target is T2, human ADAMTS-4 protease (Homo sapiens, UniProt O75173).
T2 sequence (O75173 213-837): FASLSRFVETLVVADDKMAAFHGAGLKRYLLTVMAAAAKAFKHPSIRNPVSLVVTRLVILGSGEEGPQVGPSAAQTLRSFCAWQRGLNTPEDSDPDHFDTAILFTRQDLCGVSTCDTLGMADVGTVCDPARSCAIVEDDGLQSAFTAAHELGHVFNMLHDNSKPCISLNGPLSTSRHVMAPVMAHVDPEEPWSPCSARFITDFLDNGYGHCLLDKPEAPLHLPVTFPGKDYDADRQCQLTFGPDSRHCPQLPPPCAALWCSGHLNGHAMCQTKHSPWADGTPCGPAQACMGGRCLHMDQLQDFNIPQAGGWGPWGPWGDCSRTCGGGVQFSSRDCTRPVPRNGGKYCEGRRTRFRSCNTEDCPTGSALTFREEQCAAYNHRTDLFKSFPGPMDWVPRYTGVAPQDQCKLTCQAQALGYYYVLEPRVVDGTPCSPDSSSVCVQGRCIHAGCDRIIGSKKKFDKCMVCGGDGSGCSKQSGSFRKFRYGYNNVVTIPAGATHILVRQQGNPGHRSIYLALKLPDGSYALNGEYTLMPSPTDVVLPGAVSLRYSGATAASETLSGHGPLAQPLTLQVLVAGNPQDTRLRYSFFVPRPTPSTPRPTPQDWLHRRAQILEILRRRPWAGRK
Nature of the experiment: Inhibition of ADAMTS-4 activity (rAgg1mut substrate, neo-epitope ELISA). The class given is biochemical. Particulars: recombinant human ADAMTS-4, rAgg1mut substrate.

For experiment [3], the target named is T3, TNFα-converting enzyme (TACE) (Homo sapiens, UniProt P78536).
T3 construct: purchased R&D Systems
T3 sequence (P78536 215-824): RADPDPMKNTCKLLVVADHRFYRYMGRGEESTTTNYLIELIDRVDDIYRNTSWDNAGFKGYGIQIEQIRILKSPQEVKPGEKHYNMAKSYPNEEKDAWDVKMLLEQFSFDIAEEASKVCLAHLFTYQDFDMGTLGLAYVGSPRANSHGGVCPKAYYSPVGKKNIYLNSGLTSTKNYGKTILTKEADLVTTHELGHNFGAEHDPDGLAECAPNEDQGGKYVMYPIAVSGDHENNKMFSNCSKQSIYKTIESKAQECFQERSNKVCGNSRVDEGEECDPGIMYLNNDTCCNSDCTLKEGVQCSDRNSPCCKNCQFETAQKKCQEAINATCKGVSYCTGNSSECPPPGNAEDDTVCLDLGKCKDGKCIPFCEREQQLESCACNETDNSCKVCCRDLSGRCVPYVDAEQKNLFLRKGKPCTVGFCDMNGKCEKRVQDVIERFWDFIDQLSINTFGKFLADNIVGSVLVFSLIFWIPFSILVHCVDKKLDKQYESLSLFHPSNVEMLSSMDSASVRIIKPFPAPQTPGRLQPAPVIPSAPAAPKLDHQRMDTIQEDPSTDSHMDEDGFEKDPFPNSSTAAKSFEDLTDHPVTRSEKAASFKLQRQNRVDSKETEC
Nature of the experiment: Inhibition of TACE activity (fluorimetric peptide substrate cleavage). It is filed as biochemical. The protocol: The activity of the cyclic urea derivatives of the invention was tested in various in vitro assay systems for inhibitory activity on the proteases ADAMTS-4 and TNFα-converting enzyme (TACE) and on matrix-degrading metalloproteases (MMP13).
The activity in relation to TACE was measured using a commercially available, recombinantly prepared TACE protease (R&D Systems) and the substrate MCA-ProLeuAlaGlnAlaVal-Dpa-ArgSerSerSerArg-NH2 (Bachem).

In experiment [4] the test system is primary bovine chondrocytes. Description: Inhibition of proteoglycan liberation from IL1α-stimulated primary bovine chondrocyte cultures. The class given is cell-based. Particulars: Bos taurus, alginate culture, 5 ng/ml human IL1α, 16 hours, dimethylmethylene blue dye test. The protocol: The proteoglycan degradation was determined using primary bovine chondrocytes which were isolated from the cartilage of the metacarpophalangeal joint of cattle about 6 months old and cultured in an alginate matrix at 37° C. and 5% CO2 for 3 weeks. Stimulation of ˜160 000 cells with 5 ng/ml human IL1α was followed after 16 hours by determination of the liberated amount of proteoglycan by means of a commercially available dimethylmethylene blue dye test system (Biocolor Ltd.).

[5] abbreviates: recombinant TACE (R&D Systems), MCA peptide substrate, fluorimeter, read-out: Inhibition of TACE activity (IC50).

In general, IC50 refers to the concentration needed to halve the response being measured. Turning to `CC(C)C(C(=O)NO)N1CCN(Cc2ccc(OCc3ccccc3)cc2)C1=O` (stereo not drawn) [Example 1, 2-(3-(4-Benzyloxybenzyl)-2-oxoimidazolidin-1-yl)-N-hydroxy-3-methylbutyramide], the IC50 in experiment [1] was 5 µM; in experiment [2], 2.1 µM; in experiment [3] (setting [5]), 2.47 µM; in experiment [4], above 50 µM.
Turning to `COc1ccc(CC2CN(Cc3ccccc3)C(=O)N2C(C(=O)NO)C(C)C)cc1` (stereo not drawn) [Example 15, 2-(3-Benzyl-5-(4-methoxybenzyl)-2-oxoimidazolidin-1-yl)-N-hydroxy-3-methylbutyramide], the values for the IC50 in experiment [1], in experiment [2] and in experiment [3] (setting [5]) were 0.4 µM, 17 µM and 8 µM, respectively.
Take `Cc1cc(COc2ccc(CN3CCN(C(C(=O)NO)C(C)C)C3=O)cc2)c2ccccc2n1` (stereo not drawn) [Example 14, N-Hydroxy-3-methyl-2-{3-(4-(2-methylquinolin-4-ylmethoxy)benzyl)-2-oxoimidazolidin-1-yl}butyramide with TFA]: the values for the IC50 in experiment [2], in experiment [3] (setting [5]) and in experiment [4] were 1.14 µM, 0.01 µM and 12.9 µM, respectively.
Take `COc1ccc(CC2CN(C)C(=O)N2C(C(=O)NO)C(C)C)cc1` (stereo not drawn) [Example 17, N-Hydroxy-2-(5-(4-methoxybenzyl)-3-methyl-2-oxoimidazolidin-1-yl)-3-methylbutyramide]: the IC50 in experiment [1] amounted to 3.17 µM.
As for `CC(C)C(C(=O)NO)N1CCN(Cc2cccc(OCc3ccccc3)c2)C1=O` (stereo not drawn) [Example 3, 2-(3-(3-Benzyloxybenzyl)-2-oxoimidazolidin-1-yl)-N-hydroxy-3-methylbutyramide], in experiment [3] (setting [5]), the IC50 was found to be 2 µM.
Turning to “2-(3-Biphenyl-4-ylmethyl-2-oxoimidazolidin-1-yl)-N-hydroxy-3-methylbutyramide [Example 6]”, the half-maximal inhibitory concentration (IC50) in experiment [2] came out at 9.06 µM.
As for `CC(C)C(C(=O)NO)N1CCN(Cc2cccc(O)c2)C1=O` (stereo not drawn) [Example 9, N-Hydroxy-2-(3-(3-hydroxybenzyl)-2-oxoimidazolidin-1-yl)-3-methylbutyramide], the IC50 in experiment [2] came out at 72.4 µM; in experiment [3] (setting [5]), 3.04 µM.
As to `CC(C)C(C(=O)NO)N1C(=O)N(Cc2ccc(OCc3ccccc3)cc2)CC1Cc1ccc2c(c1)OCO2` (stereo not drawn) [Example 18, 2-(5-Benzo(1,3)dioxol-5-ylmethyl-3-(4-benzyloxybenzyl)-2-oxoimidazolidin-1-yl)-N-hydroxy-3-methylbutyramide], the concentration for half-maximal inhibition (IC50) in experiment [1] was 0.6 µM; in experiment [2] it was 3.16 µM; in experiment [3] (setting [5]) it was 1.9 µM.
`CC(C)C(C(=O)NO)N1CCN(c2ccc(OCc3ccccc3)cc2)C1=O` (stereo not drawn) [Example 2, 2-(3-(4-Benzyloxyphenyl)-2-oxoimidazolidin-1-yl)-N-hydroxy-3-methylbutyramide]: the IC50 in experiment [2] is 55 µM.
Turning to `COc1ccc(CC2CN(Cc3ccc(OCc4ccccc4)cc3)S(=O)(=O)N2C(C(=O)NO)C(C)C)cc1` (stereo not drawn) [Example 20, 2-(5-(4-Benzyloxybenzyl)-3-(4-methoxybenzyl)-1,1-dioxo-(1,2,5)thiadiazolidin-2-yl)-N-hydroxy-3-methylbutyramide], in experiment [1], the IC50 came out at 3.58 µM.
For the compound `CC(C)C(C(=O)NO)N1CCN(Cc2ccc(OCc3ccccc3)nc2)C1=O` (stereo not drawn) [Example 5, 2-(3-(6-Benzyloxypyridin-3-ylmethyl)-2-oxoimidazolidin-1-yl)-N-hydroxy-3-methylbutyramide], in experiment [2], the IC50 is 10 µM.
As to `COc1ccc(CC2CN(Cc3ccc(OCc4ccccc4)cc3)C(=O)N2C(C(=O)NO)C(C)C)cc1` (stereo not drawn) [Example 16, 2-(3-(4-Benzyloxybenzyl)-5-(4-methoxybenzyl)-2-oxoimidazolidin-1-yl)-N-hydroxy-3-methylbutyramide], the IC50 in experiment [1] came to 0.42 µM; in experiment [2], 1.39 µM; in experiment [3] (setting [5]), 3.08 µM; in experiment [4], 25.5 µM.
As for `CC(C)C(C(=O)NO)N1CCN(Cc2ccc(OCc3ccncc3)cc2)C1=O` (stereo not drawn) [Example 10, N-Hydroxy-3-methyl-2-{2-oxo-3-(4-(pyridin-4-ylmethoxy)benzyl)imidazolidin-1-yl}-butyramide; compound with TFA], the half-inhibitory concentration (IC50) in experiment [1] was 4 µM; in experiment [2], 0.9 µM; in experiment [3], 1.14 µM; in experiment [4] it was above 50 µM.
Take `CC(C)C(C(=O)NO)N1CCN(Cc2ccc(Oc3ccccc3)cc2)C1=O` (stereo not drawn) [Example 4, N-Hydroxy-3-methyl-2-(2-oxo-3-(4-phenoxybenzyl)imidazolidin-1-yl)-butyramide]: the results for the IC50 in experiment [1], in experiment [2] and in experiment [3] (setting [5]) were 0.08 µM, 1.33 µM and 5 µM, respectively.
In the case of `CC(C)C(C(=O)NO)N1CCN(Cc2ccc(OCc3cccnc3)cc2)C1=O` (stereo not drawn) [Example 11, N-Hydroxy-3-methyl-2-[2-oxo-3-(4-(pyridin-3-ylmethoxy)benzyl)imidazolidin-1-yl]-butyramide with TFA], the half-maximal inhibitory concentration (IC50) was determined as 5.4 µM in experiment [1], 7.8 µM in experiment [2] and 3 µM in experiment [3] (setting [5]).
`COc1ccc(C2CN(Cc3ccccc3)C(=O)N2C(C(=O)NO)C(C)C)cc1` (stereo not drawn) [Example 7, 2-(3-Benzyl-5-(4-methoxyphenyl)-2-oxoimidazolidin-1-yl)-N-hydroxy-3-methylbutyramide]: the IC50 in experiment [1] came out at 0.01 µM; in experiment [3], 9 µM.
Turning to `CC#CCOc1ccc(CN2CCN(C(C(=O)NO)C(C)C)C2=O)cc1` (stereo not drawn) [Example 13, 2-(3-(4-But-2-ynyloxybenzyl)-2-oxoimidazolidin-1-yl)-N-hydroxy-3-methylbutyramide], in experiment [3] (setting [5]), the IC50 stood at 5 µM.
Turning to `CC(C)C(C(=O)NO)N1CCN(Cc2ccc(OCc3ccccn3)cc2)C1=O` (stereo not drawn) [Example 12, N-Hydroxy-3-methyl-2-{2-oxo-3-(4-(pyridin-2-ylmethoxy)benzyl)imidazolidin-1-yl}butyramide with TFA], the figures for the IC50 in experiment [2] and in experiment [3] (setting [5]) were 7 µM and 8 µM, respectively.
For `CC(C)C(C(=O)NO)N1C(=O)N(Cc2ccccc2)CC1Cc1ccc2c(c1)OCO2` (stereo not drawn) [Example 19, 2-(5-Benzo(1,3)dioxol-5-ylmethyl-3-benzyl-2-oxoimidazolidin-1-yl)-N-hydroxy-3-methylbutyramide], the IC50 was found to be 0.34 µM in experiment [1] and 9.29 µM in experiment [3] (setting [5]).

The record behind these values is patent US7652143B2, “Cyclic ureas used as inhibitors of metalloproteases” (sanofi-aventis Deutschland GmbH, priority 2004, dated 2010).
